According to ChEMBL document CHEMBL3784916, “Synthesis and anticancer activity of novel fluorinated asiatic acid derivatives” (Eur J Med Chem, 2016):
Activity calls are given as the source filed them. No cut-off for these calls is given here.

Assays:
HT-29 = test: Cytotoxicity against human HT-29 cells after 72 hrs by MTT assay; type: functional, cell-based; details: HT-29, 72 h
HeLa [1] = test: Cytotoxicity against human HeLa cells after 72 hrs by MTT assay; type: functional, cell-based
Jurkat = test: Cytotoxicity against human Jurkat cells after 72 hrs by XTT assay; type: functional, cell-based
[2] = (§1) Cytotoxicity against human PC3 cells after 72 hrs by MTT assay; type: functional, cell-based; details: PC-3, 72 h
PC-3 = test: as §1; type: functional, cell-based
MCF7 = test: Cytotoxicity against human MCF7 cells after 72 hrs by MTT assay; type: functional, cell-based
HeLa [3] = test: Downregulation of cyclin D3 level in human HeLa cells after 48 hrs by Western blot method; type: functional, cell-based
[4] = (§2) Cytotoxicity against human MIAPaCa2 cells after 72 hrs by MTT assay; type: functional, cell-based; details: MIA PaCa-2, 72 h
MIA PaCa-2 = test: as §2; type: functional, cell-based
A-375 = test: Cytotoxicity against human A375 cells after 72 hrs by MTT assay; type: functional, cell-based
BJ = test: Cytotoxicity against human BJ cells after 72 hrs by MTT assay; type: cell-based; details: Homo sapiens, BJ
HeLa [5] = test: Potency index, ratio of cisplatin IC50 to compound IC50 for human HeLa cells; type: functional
HeLa [6] = test: Induction of cell cycle arrest in human HeLa cells assessed as accumulation at G0/G1 phase at 1.34 uM after 24 hrs by propidium iodide staining-based flow cytometry (reference value: 51.41%); type: functional
HeLa [7] = test: Induction of cell cycle arrest in human HeLa cells assessed as accumulation at G0/G1 phase at 2.68 uM after 24 hrs by propidium iodide staining-based flow cytometry (reference value: 51.41%); type: functional
HeLa [8] = test: Induction of cell cycle arrest in human HeLa cells assessed as accumulation at S phase at 1.34 uM after 24 hrs by propidium iodide staining-based flow cytometry (reference value: 35.72%); type: functional
HeLa [9] = test: Induction of cell cycle arrest in human HeLa cells assessed as accumulation at S phase at 2.68 uM after 24 hrs by propidium iodide staining-based flow cytometry (reference value: 35.72%); type: functional
HeLa [10] = test: Induction of cell cycle arrest in human HeLa cells assessed as accumulation at G0/G1 phase at 1.34 uM after 48 hrs by propidium iodide staining-based flow cytometry (reference value: 54.05%); type: functional
HeLa [11] = test: Induction of cell cycle arrest in human HeLa cells assessed as accumulation at subG0/G1 phase at 2.68 uM after 48 hrs by propidium iodide staining-based flow cytometry; type: functional
HeLa [12] = test: Induction of apoptosis in human HeLa cells assessed as dead cells at 0.67 uM after 48 hrs by annexin V-FITC/propidium iodide staining-based flow cytometry ( Rvb = 0.067%); type: functional
HeLa [13] = test: Induction of apoptosis in human HeLa cells assessed as late apoptotic cells at 0.67 uM after 48 hrs by annexin V-FITC/propidium iodide staining-based flow cytometry ( Rvb = 1.28%); type: functional
HeLa [14] = test: Induction of apoptosis in human HeLa cells assessed as viable cells at 0.67 uM after 48 hrs by annexin V-FITC/propidium iodide staining-based flow cytometry ( Rvb = 95.4%); type: functional; details: read-out: Activity
HeLa [15] = test: Induction of apoptosis in human HeLa cells assessed as early apoptotic cells at 0.67 uM after 48 hrs by annexin V-FITC/propidium iodide staining-based flow cytometry ( Rvb = 3.24%); type: functional
HeLa [16] = test: Induction of apoptosis in human HeLa cells assessed as dead cells at 1.34 uM after 48 hrs by annexin V-FITC/propidium iodide staining-based flow cytometry ( Rvb = 0.067%); type: functional
HeLa [17] = test: Induction of apoptosis in human HeLa cells assessed as late apoptotic cells at 1.34 uM after 48 hrs by annexin V-FITC/propidium iodide staining-based flow cytometry ( Rvb = 1.28%); type: functional
HeLa [18] = test: Induction of apoptosis in human HeLa cells assessed as viable cells at 1.34 uM after 48 hrs by annexin V-FITC/propidium iodide staining-based flow cytometry ( Rvb = 95.4%); type: functional; details: read-out: Activity
HeLa [19] = test: Induction of apoptosis in human HeLa cells assessed as early apoptotic cells at 1.34 uM after 48 hrs by annexin V-FITC/propidium iodide staining-based flow cytometry ( Rvb = 3.24%); type: functional
HeLa [20] = test: Induction of apoptosis in human HeLa cells assessed as dead cells at 2.68 uM after 48 hrs by annexin V-FITC/propidium iodide staining-based flow cytometry ( Rvb = 0.067%); type: functional
HeLa [21] = test: Induction of apoptosis in human HeLa cells assessed as late apoptotic cells at 2.68 uM after 48 hrs by annexin V-FITC/propidium iodide staining-based flow cytometry ( Rvb = 1.28%); type: functional
HeLa [22] = test: Induction of apoptosis in human HeLa cells assessed as viable cells at 2.68 uM after 48 hrs by annexin V-FITC/propidium iodide staining-based flow cytometry ( Rvb = 95.4%); type: functional; details: read-out: Activity
HeLa [23] = test: Induction of apoptosis in human HeLa cells assessed as early apoptotic cells at 2.68 uM after 48 hrs by annexin V-FITC/propidium iodide staining-based flow cytometry ( Rvb = 3.24%); type: functional
HeLa [24] = test: Induction of apoptosis in human HeLa cells assessed as cell shrinkage at 0.67 to 1.34 uM after 48 hrs by Hoechst 33258 staining-based fluorescence microscopy; type: functional
HeLa [25] = test: Induction of apoptosis in human HeLa cells assessed as chromatin condensation at 0.67 to 1.34 uM after 48 hrs by Hoechst 33258 staining-based fluorescence microscopy; type: functional, cell-based
HeLa [26] = test: Induction of apoptosis in human HeLa cells assessed as reduction in adherent cells at 0.67 to 1.34 uM after 48 hrs by Hoechst 33258 staining-based fluorescence microscopy; type: functional, cell-based
HeLa [27] = test: Induction of apoptosis in human HeLa cells assessed as rupture of cell membrane at 2.68 uM after 48 hrs by Hoechst 33258 staining-based fluorescence microscopy; type: functional
HeLa [28] = test: Induction of apoptosis in human HeLa cells assessed as nuclear fragmentation at 2.68 uM after 48 hrs by Hoechst 33258 staining-based fluorescence microscopy; type: functional, cell-based
HeLa [29] = test: Upregulation of p21 cip1/waf1 level in human HeLa cells at 1.34 to 2.68 uM after 48 hrs by Western blot method; type: functional, cell-based
HeLa [30] = test: Upregulation of p27 kip1 level in human HeLa cells at 1.34 to 2.68 uM after 48 hrs by Western blot method; type: functional, cell-based
HeLa [31] = test: Downregulation of cyclin E level in human HeLa cells at 0.67 to 2.68 uM after 48 hrs by Western blot method; type: functional, cell-based
HeLa [32] = test: Induction of apoptosis in human HeLa cells assessed as increase in cleaved caspase-3 level at 2.68 uM after 48 hrs by Western blot method; type: functional, cell-based
HeLa [33] = test: Induction of apoptosis in human HeLa cells assessed as increase in cleaved caspase-8 level at 2.68 uM after 48 hrs by Western blot method; type: functional, cell-based
HeLa [34] = test: Induction of apoptosis in human HeLa cells assessed as increase in cleaved PARP level at 2.68 uM after 48 hrs by Western blot method; type: functional, cell-based
HeLa [35] = test: Induction of apoptosis in human HeLa cells assessed as increase in t-Bid level at 2.68 uM after 48 hrs by Western blot method; type: functional, cell-based
HeLa [36] = test: Induction of apoptosis in human HeLa cells assessed as upregulation of Bax level after 48 hrs by Western blot method; type: functional, cell-based
HeLa [37] = test: Induction of apoptosis in human HeLa cells assessed as downregulation of Bcl2 level after 48 hrs by Western blot method; type: functional, cell-based
HeLa [38] = test: Induction of apoptosis in human HeLa cells assessed as increase in Bax to Bcl2 ratio at 0.67 to 2.68 uM after 48 hrs by Western blot method; type: functional, cell-based
HeLa [39] = test: Potency index, ratio of asiatic acid IC50 to compound IC50 for human HeLa cells; type: functional

SMILES: C[C@H]1[C@H](C)CC[C@@]23CC[C@]4(C)[C@](OC2=O)([C@H](F)C[C@@H]2[C@@]5(C)C(C=O)=C[C@@](C)(COC(=O)/C=C/c6ccccc6)[C@@H]5CC[C@]24C)[C@H]13
- IC50 (HT-29): 710 nM
- IC50 (HeLa [1]): 670 nM
- Activity (Jurkat): Dose-dependent effect
- IC50 (Jurkat): 680 nM
- IC50 [2]: 740 nM
- Activity (PC-3): Dose-dependent effect
- Activity (MCF7): Dose-dependent effect
- IC50 (MCF7; MCF7, 72 h): 840 nM
- Activity (HeLa [3]): Dose-dependent effect
- IC50 [4]: 1130 nM
- Activity (MIA PaCa-2): Dose-dependent effect
- Activity (A-375): Dose-dependent effect
- IC50 (A-375; A-375, 72 h): 720 nM
- IC50 (BJ): 1940 nM
- Ratio IC50 (HeLa [5]): 3.5
- Activity (HeLa [6]): 67.26%
- Activity (HeLa [7]): 72.72%
- Activity (HeLa [8]): 22.55%
- Activity (HeLa [9]): 11.05%
- Activity (HeLa [10]): 76.03%
- Activity (HeLa [11]): 11.39%
- Activity (HeLa [12]): 0.193%
- Activity (HeLa [13]): 1.23%
- viability at 0.67 µM (HeLa [14]): 94.7%
- Activity (HeLa [15]): 3.65%
- Activity (HeLa [16]): 0.172%
- Activity (HeLa [17]): 2.6%
- viability at 1.34 µM (HeLa [18]): 92%
- Activity (HeLa [19]): 5.25%
- Activity (HeLa [20]): 2.86%
- Activity (HeLa [21]): 22.6%
- viability at 2.68 µM (HeLa [22]): 62.4%
- Activity (HeLa [23]): 12.1%
- Activity (HeLa [24]): Active
- Activity (HeLa [25]): Active
- Activity (HeLa [26]): Active
- Activity (HeLa [27]): Active
- Activity (HeLa [28]): Active
- Activity (HeLa [29]): Active
- Activity (HeLa [30]): Active
- Activity (HeLa [31]): Active
- Activity (HeLa [32]): Active
- Activity (HeLa [33]): Active
- Activity (HeLa [34]): Active
- Activity (HeLa [35]): Active
- Activity (HeLa [36]): Dose-dependent effect
- Activity (HeLa [37]): Dose-dependent effect
- Activity (HeLa [38]): Active
- Ratio IC50 (HeLa [39]): 79
